Results: the supplement of paper PMC10307832

compound: C[C@@]1(C(=O)Nc2ccc(F)nc2)CCCN1c1nc(Nc2cc(C3CC3)n[nH]2)c2cccn2n1 + C[C@]1(O)C[C@@H](c2nc(-c3ccc4ccc(-c5ccccc5)nc4c3)c3c(N)nccn32)C1 [Linsitinib] (partner 1 µM); assay: relative viability (nuclei count vs DMSO), 5 days (fraction); higher = more cells survive; conditions: first compound 1.265 µM
Method in brief: (§1)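 Lung cancer cell lines in 1536-well plates were dosed by pin tool the day after seeding, either with one drug alone or with a fixed anchor-drug dose plus five library-drug doses (not always all listed) in √10 steps. After 5 days, cells were fixed and their nuclei stained in one step (final 0.05% Triton X-100, 1% formaldehyde, 1 ug/ml Hoechst), then counted on 4× images. Relative viability is the nuclei count in treated wells divided by that in vehicle wells. Values are medians of duplicate plates.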

Cell Line	relative viability
HCC-15	0.981
NCI-H1793	0.992
PC-14	1.01
EKVX	0.964
LC-2-ad	0.576
NCI-H1944	1.3
NCI-H1975	0.727
RERF-LC-KJ	0.857
NCI-H358	0.474
NCI-H650	0.721
PC-3 [JPC-3]	0.934

compound: C[C@@]1(C(=O)Nc2ccc(F)nc2)CCCN1c1nc(Nc2cc(C3CC3)n[nH]2)c2cccn2n1 + CCNC(=O)c1noc(-c2cc(C(C)C)c(O)cc2O)c1-c1ccc(CN2CCOCC2)cc1 [Luminespib] (partner 0.01 µM); assay: as above; conditions: first compound 0.04 µM
Method in brief: as §1

Cell Line	relative viability
A-427	1.03
NCI-H441	0.258
NCI-H661	0.973
NCI-H1734	0.201
NCI-H460	0.0318
NCI-H2347	0.706
SK-LU-1	0.208
NCI-H1395	0.768
201T	0.878
NCI-H1915	0.816
HCC-827	0.747
LXF-289	0.64
NCI-H23	0.21
NCI-H647	0.152
CAL-12T	0.446
NCI-H1651	0.916
EPLC-272H	0.214
NCI-H2228	0.121

Cell Line	relative viability
NCI-H1792	0.344
NCI-H1355	0.669
NCI-H3122	0.0763
NCI-H1437	1.18
NCI-H1755	0.616
NCI-H2023	0.58
HCC-15	0.481
NCI-H1793	0.581
PC-14	0.164
EKVX	0.804
LC-2-ad	0.97
NCI-H1944	0.562
NCI-H1975	0.272
RERF-LC-KJ	1.15
NCI-H358	0.35
NCI-H650	0.797
PC-3 [JPC-3]	0.642

same assay, conditions: first compound 0.1265 µM

Cell Line	relative viability
A-427	0.957
NCI-H441	0.175
NCI-H661	1.06
NCI-H1734	0.161
NCI-H460	0.0246
NCI-H2347	0.448
SK-LU-1	0.191
NCI-H1395	0.717
201T	0.84
NCI-H1915	0.736
HCC-827	0.388
LXF-289	0.563
NCI-H23	0.211
NCI-H647	0.245
CAL-12T	0.391
NCI-H1651	0.715
NCI-H2228	0.121

Cell Line	relative viability
NCI-H1792	0.653
NCI-H1355	0.517
NCI-H3122	0.0863
NCI-H1437	1.19
NCI-H1755	0.357
NCI-H2023	0.336
HCC-15	0.364
NCI-H1793	0.18
EKVX	0.67
LC-2-ad	0.859
NCI-H1944	0.652
NCI-H1975	0.117
RERF-LC-KJ	0.964
NCI-H358	0.143
NCI-H650	0.426
PC-3 [JPC-3]	0.646

same assay, conditions: first compound 0.4 µM

Cell Line	relative viability
A-427	0.639
NCI-H441	0.221
NCI-H661	1.05
NCI-H1734	0.159
NCI-H460	0.0368
NCI-H2347	0.206
SK-LU-1	0.184
NCI-H1395	0.583
201T	0.799
NCI-H1915	0.781
HCC-827	0.529
LXF-289	0.511
NCI-H23	0.213
NCI-H647	0.181
CAL-12T	0.487
NCI-H1651	0.768
EPLC-272H	0.187

Cell Line	relative viability
NCI-H2228	0.15
NCI-H1792	0.243
NCI-H1355	0.577
NCI-H3122	0.0793
NCI-H1437	1.01
NCI-H1755	0.406
NCI-H2023	0.37
HCC-15	0.55
PC-14	0.12
EKVX	0.683
LC-2-ad	0.719
NCI-H1944	0.399
NCI-H1975	0.128
RERF-LC-KJ	1.09
NCI-H358	0.111
NCI-H650	0.536
PC-3 [JPC-3]	0.561

same assay, conditions: first compound 1.265 µM

Cell Line	relative viability
A-427	0.881
NCI-H441	0.267
NCI-H661	1.02
NCI-H1734	0.157
NCI-H460	0.0359
NCI-H2347	0.288
SK-LU-1	0.172
NCI-H1395	0.889
201T	1.02
NCI-H1915	0.862
HCC-827	1
LXF-289	0.611
NCI-H23	0.214
NCI-H647	0.164
CAL-12T	0.116
NCI-H1651	0.71
EPLC-272H	0.272
NCI-H2228	0.116

Cell Line	relative viability
NCI-H1792	0.292
NCI-H1355	0.696
NCI-H3122	0.0682
NCI-H1437	1.02
NCI-H1755	0.437
NCI-H2023	0.192
HCC-15	0.417
NCI-H1793	0.604
PC-14	0.175
EKVX	0.935
LC-2-ad	0.599
NCI-H1944	0.586
NCI-H1975	0.187
RERF-LC-KJ	0.717
NCI-H358	0.238
NCI-H650	0.499
PC-3 [JPC-3]	0.8
